Measured values as given in US6806265B2, “Non-nucleoside reverse transcriptase inhibitors” (priority 2002, dated 2004).
Read-outs that look alike come from different tables or passages of the source.

Assays:
[1] = molecular target: T1, HIV-1 RT double mutant K103N/Y181C (Human immunodeficiency virus type 1 group M subtype B, UniProt P03366, K702N/Y780C); assay: biochemical
T1 construct: HIV-1 wild type reverse transcriptase as well as the clinically significant double mutant K103N/Y181C
Experimental: (§1) Utilizing the Reverse Transcriptase (RT) Assay described below, compounds were tested for their ability to inhibit the RNA-dependent DNA polymerase activity of HIV-1 RT. Certain specific compounds described in the Examples and in Tables 1-4, were so tested. The results of this testing appear in Table 5 as ranges of IC50 (nM) and EC50 (nM).
(§2) Reverse Transcriptase (RT) Assays

[2] = molecular target: T2, HIV-1 wild type reverse transcriptase (Human immunodeficiency virus type 1 group M subtype B, UniProt P03366); assay: biochemical; conditions: wild type RT; read-out: IC50 WT RT
T2 construct: HIV-1 wild type reverse transcriptase
Experimental: as §1, §2

HIV-1 wild type = assay: microbe, parasite or virus in culture; format: cell-based
[3] = tested on: HIV-1 double mutant K103N/Y181C; assay: microbe, parasite or virus in culture; format: cell-based
[4] = Human immunodeficiency virus 1, wild type, read-out: EC50 WT RT
[5] = Human immunodeficiency virus 1, read-out: EC50 K103N/Y181C (nM)
[6] = RT double mutant K103N/Y181C, read-out: IC50 K103N/Y181C
[7] = wild type, read-out: EC50 WT RT
[8] = double mutant K103N/Y181C, read-out: EC50 K103N/Y181C
[9] = Human immunodeficiency virus 1, read-out: EC50 WT RT (nM)

SMILES	IC50 [1] [nM]	IC50 [2] [nM]	EC50 (HIV-1 wild type; [4]) [nM]	EC50 [3, 5] [nM]	IC50 [1, 6] [nM]	EC50 (HIV-1 wild type; [7]) [nM]	EC50 [3, 8] [nM]	EC50 (HIV-1 wild type; [9]) [nM]
CCN1c2ncc(CCOc3ccc(C(=O)Nc4cc[n+]([O-])cc4)cc3C)cc2C(=O)N(C)c2cccnc21 [Entry 3004, 4-[2-(11-Ethyl-6,11-dihydro-5-methyl-6-oxo-5H-dipyrido[3,2-b:2′,3′-e][1,4]diazepin-8-yl)ethoxy]-3-methyl-N-(1-oxido-4-pyridinyl)benzamide]	< 50	< 50	< 10	< 10				
CCN1c2ncc(CCOc3ccc(-c4cc(C(=O)O)on4)cc3C)cc2C(=O)N(C)c2cccnc21 [Entry 1041, 3-{4-[2-(11-Ethyl-6,11-dihydro-5-methyl-6-oxo-5H-dipyrido[3,2-b:2′,3′-e][1,4]diazepin-8-yl)ethoxy]-3-methylphenyl}-5-isoxazolecarboxylic acid]	< 50	< 50	> 50	> 50				
Cc1cc(-c2ccc(CC(=O)O)cc2)ccc1OCCc1cnc2c(c1)C(=O)N(C)c1cccnc1N2 [Entry 1059]		< 50			> 100	< 10	> 50	
CCN1c2ncc(CCOc3ccc(S(=O)(=O)Nc4ccc(C(=O)O)cc4)cc3C)cc2C(=O)N(C)c2cccnc21 [Entry 3030]		< 50			< 50	> 50	> 50	
CCN1c2ncc(CCOc3ccc(-c4cn(C)cn4)cc3C)cc2C(=O)N(C)c2cccnc21 [Entry 1095, 11-Ethyl-5,11-dihydro-5-methyl-8-{2-[2-methyl-4-(1-methyl-1H-imidazol-4-yl)phenoxy]ethyl}-6H-dipyrido[3,2-b:2′,3′-e][1,4]diazepin-6-one]	< 50	< 50	< 10	< 10				
CCN1c2ncc(CCOc3ccc(C(=O)c4ccc(C(=O)O)cc4)cc3C)cc2C(=O)N(C)c2cccnc21 [Entry 3027]	50 to 100	< 50		10 to 50				< 10
CCN1c2ncc(CCOc3ccc(-c4ccc(C(=O)O)cc4)cc3F)cc2C(=O)N(C)c2cccnc21 [Entry 1004]		< 50			> 100	< 10	> 50	
CCN1c2ncc(CCOc3ccc(C(=O)NS(=O)(=O)c4ccccc4)cc3C)cc2C(=O)N(C)c2cccnc21 [Entry 3009]	> 100	< 50		> 50				10 to 50
CCN1c2ncc(CCOc3ccc(NC(=O)c4ccc(C(=O)O)cc4)cc3C)cc2C(=O)N(C)c2cccnc21 [Entry 3032]	< 50	< 50		> 50				10 to 50
CCN1c2ncc(CCOc3ccc(C(=O)Nc4cccc[n+]4[O-])cc3C)cc2C(=O)Nc2c(C)ccnc21 [Entry 3019]		< 50			50 to 100	< 10	< 10	
CCN1c2ncc(CCOc3ccc(Nc4cccc(CC(=O)O)c4)cc3C)cc2C(=O)N(C)c2cccnc21 [Entry 3024]	< 50	< 50		< 10				< 10
CCN1c2ncc(CCOc3ccc(-c4ccncc4)cc3)cc2C(=O)N(C)c2cccnc21 [Entry 1090, 11-Ethyl-5,11-dihydro-5-methyl-8-{2-[4-(4-pyridinyl)phenoxy]ethyl}-6H-dipyrido[3,2-b:2′,3′-e][1,4]diazepin-6-one]	50 to 100	< 50	< 10	10 to 50				
CCN1c2ncc(CCOc3ccc(NC(=O)CCC(=O)O)cc3C)cc2C(=O)N(C)c2cccnc21 [Entry 4006]	50 to 100	< 50	10 to 50	> 50				
CCN1c2ncc(CCOc3ccc(-c4cc[n+]([O-])cc4)cc3)cc2C(=O)N(C)c2cccnc21 [Entry 1091, 11-Ethyl-5,11-dihydro-5-methyl-8-{2-[4-(1-oxido-4-pyridinyl)phenoxy]ethyl}-6H-dipyrido[3,2-b:2′,3′-e][1,4]diazepin-6-one]	< 50	< 50	< 10	< 10				
CCN1c2ncc(CCOc3ccc(NC(=O)CC4(C(=O)O)CCCC4)cc3C)cc2C(=O)N(C)c2cccnc21 [Entry 4007]	> 100	< 50	< 10	< 10				
CCN1c2ncc(CCOc3ccc(S(=O)(=O)NCC(=O)O)cc3C)cc2C(=O)N(C)c2cccnc21 [Entry 4020]	< 50	< 50	> 50	> 50				

SMILES	IC50 [1] [nM]	IC50 [2] [nM]	EC50 (HIV-1 wild type; [4]) [nM]	EC50 [3, 5] [nM]	IC50 [1, 6] [nM]	EC50 (HIV-1 wild type; [7]) [nM]	EC50 [3, 8] [nM]	EC50 (HIV-1 wild type; [9]) [nM]
CCN1c2ncc(CCOc3ccc(C(=O)Nc4ccc[n+]([O-])c4)cc3C)cc2C(=O)Nc2c(C)ccnc21 [Entry 3020]		< 50			< 50	< 10	< 10	
CCN1c2ncc(CCOc3ccc(-c4ccc(C(=O)O)cc4)cc3)cc2C(=O)N(C)c2cccnc21 [Entry 1001]		< 50			50 to 100	< 10	> 50	
CCN1c2ncc(CCOc3ccc(C(=O)Nc4ccc(CC(=O)O)cc4)cc3C)cc2C(=O)Nc2c(C)ccnc21 [Entry 3018]	< 50	< 50		> 50				10 to 50
CCN1c2ncc(CCOc3ccc(-c4ccc(N)c(C(=O)O)c4)cc3C)cc2C(=O)N(C)c2cccnc21 [Entry 1034, 4-Amino-4′-[2-(11-ethyl-6,11-dihydro-5-methyl-6-oxo-5H-dipyrido[3,2-b:2′,3′-e][1,4]diazepin-8-yl)ethoxy]-3′-methyl-[1,1′-biphenyl]-3-carboxylic acid]	< 50	< 50		< 10				< 10
CCN1c2ncc(CCOc3ccc(NC(=O)Nc4ccc(C(=O)O)cc4)cc3C)cc2C(=O)N(C)c2cccnc21 [Entry 3031]	< 50	< 50		> 50				10 to 50
CCN1c2ncc(CCOc3ccc(-c4cccc(CC(=O)O)c4)cc3)cc2C(=O)N(C)c2cccnc21 [Entry 1014]		< 50			> 100	< 10	10 to 50	
CCN1c2ncc(CCOc3ccc(Nc4ccc(C(=O)O)cc4)cc3C)cc2C(=O)N(C)c2cccnc21 [Entry 3022, 4-{{4-[2-(11-Ethyl-6,11-dihydro-5-methyl-6-oxo-5H-dipyrido[3,2-b:2′,3′-e][1,4]diazepin-8-yl)ethoxy]-3-methylphenyl}amino}benzoic acid]	< 50	< 50		10 to 50				< 10
CCN1c2ncc(CCOc3ccc(-c4ccc(C(=O)O)o4)cc3C)cc2C(=O)N(C)c2cccnc21 [Entry 1046, 5-{4-[2-(11-Ethyl-6,11-dihydro-5-methyl-6-oxo-5H-dipyrido[3,2-b:2′,3′-e][1,4]diazepin-8-yl)ethoxy]-3-methylphenyl}-2-furanecarboxylic acid]	> 100	< 50	< 10	> 50				
CCN1c2ncc(CCOc3ccc(-c4c[nH]cn4)cc3C)cc2C(=O)N(C)c2cccnc21 [Entry 1094, 11-Ethyl-5,11-dihydro-8-{2-[4-(1H-imidazol-4-yl)-2-methylphenoxy]ethyl}-5-methyl-6H-dipyrido[3,2-b:2′,3′-e][1,4]diazepin-6-one]	< 50	< 50	< 10	< 10				
CCN1c2ncc(CCOc3ccc(C(=O)NCC(CC)(CC)C(=O)O)cc3C)cc2C(=O)N(C)c2cccnc21 [Entry 4014]	< 50	< 50	< 10	10 to 50				
CCN1c2ncc(CCOc3ccc(C(=O)Nc4cccnc4O)cc3C)cc2C(=O)N(C)c2cccnc21 [Entry 3021]	< 50	< 50	< 10	< 10				
CCN1c2ncc(CCOc3ccc(NC(=O)C4CC4C(=O)O)cc3C)cc2C(=O)N(C)c2cccnc21 (centres unmarked) [Entry 4009]	> 100	< 50	< 10	> 50				
CCN1c2ncc(CCOc3ccc(-c4cocn4)cc3C)cc2C(=O)N(C)c2cccnc21 [Entry 1099, 11-Ethyl-5,11-dihydro-5-methyl-8-{2-[2-methyl-4-(4-oxazolyl)phenoxy]ethyl}-6H-dipyrido[3,2-b:2′,3′-e][1,4]diazepin-6-one]	< 50	< 50	< 10	< 10				
CCN1c2ncc(CCOc3ccc(C(=O)Nc4ccc(C(=O)O)cc4)cc3C)cc2C(=O)Nc2c(C)ccnc21 [Entry 3017]		< 50			< 50	10 to 50	> 50	
CCN1c2ncc(CCOc3ccc(-c4cc(C(=O)O)c(C)o4)cc3)cc2C(=O)N(C)c2cccnc21 [Entry 1047, 5-{4-[2-(11-Ethyl-6,11-dihydro-5-methyl-6-oxo-5H-dipyrido[3,2-b:2′,3′-e][1,4]diazepin-8-yl)ethoxy]phenyl}-2-methyl-3-furanecarboxylic acid]	> 100	< 50	10 to 50	> 50				
CCN1c2ncc(CCOc3ccc(-c4ccc(C(=O)O)cc4)cc3C)cc2C(=O)N(C)c2cccnc21 [Entry 1003]		< 50			< 50	< 10	< 10	
